Experiment: Human HepG2 cell viability assay in 384 well format
Assay type: toxicity, cell-based
Parameters: dose 125 nL, time 70.5 hour; concentration not given beside the values
Conditions: HepG2 cells, read-out: Inhibition

Compound | cytotoxicity at 70.5 h [%]
O=C(CN(CC(O)c1ccc(F)cc1)C1CC1)Nc1cccnc1 (stereo not given) | -24.7
CCNc1nc(C)c(C(=O)N(C)Cc2nc(CC)no2)s1 | -34.8
CC(C)n1cnnc1C1CCCN(S(=O)(=O)CCCC#N)C1 (stereo not given) | -35.2
COc1cccc(CN(C)C(=O)c2ccc(NC(C)=O)s2)c1OC | -62.7
CC(=O)Nc1ccc(C(=O)N(C)Cc2ccc(F)cc2F)s1 | -61.6
COCC(O)CN(C)C(=O)NCc1ccc(S(C)(=O)=O)cc1 (stereo not given) | -106
CCS(=O)(=O)NC(CCSC)C(=O)Nc1ccc(C)cc1C (stereo not given) | -88.5
CC(C)(C)C(NCC(=O)N1CCNC(=O)C1)c1ccccc1 (stereo not given) | -107
CCS(=O)(=O)NC(CCSC)C(=O)Nc1cccc(C)c1C (stereo not given) | -83.4
CNS(=O)(=O)c1ccc(CNC(=O)N(C)CC(C)C)cc1 | -94.7
Cc1cc(N2CCc3c(ncn3C)C2)n2nc(C(F)(F)F)nc2n1 | -105
Cc1noc(CS(=O)(=O)C(C)C(=O)N(C)c2ccccc2)n1 (stereo not given) | -23.3
CS(=O)(=O)CCCN(CCCO)C1CCc2ccccc21 (stereo not given) | -107
Cn1ncnc1CNc1ccccc1C(=O)NC(C)(C)C | -100
CS(=O)(=O)Cc1noc(CN2CCc3c(Cl)cccc3C2)n1 | -79.4
CNC(=O)c1ccc(OC)c(NCc2ncc(-c3cccs3)o2)c1 | -92.5
CCc1nn(C)c2[nH]nc(NC(=O)c3cccnc3OCC(C)C)c12 | -90.4
Cc1ccc(NC(=O)c2ncc(C(N)=O)cc2Cl)cc1F | -87.6
CC(C)c1ccc(NC(=O)c2ncc(C(N)=O)cc2Cl)cc1 | -86.1
CCS(=O)(=O)NC(CCSC)C(=O)Nc1ccccc1C (stereo not given) | -92
CC(C)n1cnnc1C1CCCN(S(=O)(=O)CC2CCCC2)C1 (stereo not given) | -106
CC(NCC(N)=O)c1c(F)cccc1Cl (stereo not given) | -85.6
CC(=O)Nc1ccc(C(=O)N(C)Cc2cccc(F)c2)s1 | -105
CCc1nn(C)c2[nH]nc(NC(=O)c3ccccc3COC)c12 | -101

Compound | cytotoxicity at 70.5 h [%]
Cc1cc(CNC(C)Cn2cncn2)ccc1Br (stereo not given) | -87.4
CC(=O)N1CCC(C(=O)NC2CCc3nccn3C2)CC1 (stereo not given) | -97.6
CNS(=O)(=O)c1ccc(CNC(=O)N(C)CC(O)COC)cc1 (stereo not given) | -74.7
CS(=O)(=O)NCCN(CCCO)C1CCc2ccccc21 (stereo not given) | -97.1
Cc1cc(CNc2ccccc2N2CCCCC2)no1 | -24
CN1CCN(c2ccc(Cl)cc2NC(=O)c2ccco2)CC1 | 12.6
COc1ccc(CSc2nnc(N)n2C2CC2)cc1F | 24.8
COc1ccc(C)cc1NS(=O)(=O)c1ccc(CCNC(C)=O)s1 | -4.06
CC(=O)NCCc1ccc(S(=O)(=O)Nc2ccc(C)cc2F)s1 | -2.14
CN(CCCNC(=O)C1CCCN(C(N)=O)C1)S(C)(=O)=O (stereo not given) | -9.57
COCCN1CCN(CC(O)c2ccc(C(F)(F)F)cc2)CC1 (stereo not given) | -7.3
CCOCCN1CCN(CC(O)c2ccc(C(F)(F)F)cc2)CC1 (stereo not given) | -0.521
CC(CO)NC(=O)c1ccc(NCc2ccccc2)cc1 (stereo not given) | -7
CCC(NC(=O)CCCNC(=O)OC)c1cc(F)ccc1F (stereo not given) | -3.13
CN1CCN(c2ccccc2NC(=O)NCCc2ccccc2)CC1 | -5.11
CCC(NC(=O)CNCC(F)(F)F)c1cc(F)ccc1F (stereo not given) | -6.5
CCC(NC(=O)NCC(=O)NC(C)C)c1cc(F)ccc1F (stereo not given) | -3.83
CC(C)c1ncc(Cl)c(C(=O)N2CCN3CCCCC3C2)n1 (stereo not given) | 36.2
CCCOc1cc(F)ccc1NC(=O)NCc1noc(C)n1 | -3.88
CN1CCN(c2ccccc2NC(=O)NCCc2ccc(O)cc2)CC1 | -6.51
CC(C)c1ncc(Cl)c(C(=O)N2CCCN3CCCC3C2)n1 (stereo not given) | -0.691
COCCOCC(=O)Nc1ccnn1-c1ccc(Cl)cc1 | -0.967
CCC(C)(C)NC(=O)Cn1nnc(CN(C)C(=O)c2ccccc2)n1 | -3.46
O=C(CN(CC1CCC1)CC(F)(F)F)N1CCCC1 | -6.18

Compound | cytotoxicity at 70.5 h [%]
CSCCN1C(=O)CC(C)(c2ccc(Br)cc2)C1=O (stereo not given) | -5.43
Cc1nnc(CSCc2ccc(OCC(F)(F)F)nc2)o1 | -4.42
Cc1ccc(OCC(O)COC2CCOCC2)c(Cl)c1 (stereo not given) | -0.327
CCc1nc(CN2CCCC2C(=O)NC)cs1 (stereo not given) | -0.35
Cc1ccc(OCC(O)COC2CCOCC2)c(Br)c1 (stereo not given) | -10.6
Cc1noc(C(C)SCc2ccccn2)n1 (stereo not given) | -8.37
CSCCC(NC(=O)c1ccccc1)C(=O)N(C)Cc1ccsc1 (stereo not given) | -7
CC(NC(=O)C1CC1)C(=O)N(C)Cc1ccsc1 (stereo not given) | -5.83
Cc1n[nH]c(C)c1NC(=O)NCc1ccccn1 | -8.47
CN(C)S(=O)(=O)NCC1CCN(Cc2ccccc2F)CC1 | -9.47
COc1ccccc1CCN(C)Cc1nc(N)nc(N(C)C)n1 | -11.2
Cn1cc(NC(=O)Cc2ccccc2Br)cc1C(N)=O | -2.69
CCCc1nc(C)c(C(=O)NS(=O)(=O)c2ccc(C#N)cc2)s1 | -5.99
CN(Cc1nnc(C2CC2)n1C)C(=O)c1ccnc(OC2CCC2)c1 | -10.6
Cn1cc(Br)c(=O)c(NS(=O)(=O)c2cc(F)ccc2Cl)c1 | 6.1
Cc1cc(C)c2c(OCC(=O)NC(C)C)nn(C)c2n1 | 14.7
CCN(CC)C(=O)CCNC(=O)N1CCC(c2ccccc2)C1 (stereo not given) | -6.27
CCc1nc(CN(C)CC2CCN(CCO)CC2)no1 | -9.2
Cc1cc(CN2CCN(C(=O)CCc3cccc(F)c3F)CC2)on1 | -6.52
CN(CCOc1cccc(CN)c1)C1CCOCC1 | -8.25
O=C(CCc1ccsc1)NCC1CCN(c2ccccc2)C1 (stereo not given) | 2.35
CC(Cn1cccn1)NC(=O)Nc1ccc(F)cc1 (stereo not given) | -4.1
O=C1CN(Cc2nnc(-c3ccc(Br)o3)o2)CCN1 | -7.06
CC(Cn1cccn1)NC(=O)Nc1ccc(N(C)C)nc1 (stereo not given) | 19.1

Compound | cytotoxicity at 70.5 h [%]
Cc1cc(NC(=O)NCCc2cccs2)n(C)n1 | -1.92
Cc1cnc(C(=O)N(CCN(C)C)Cc2ccc(Cl)cc2)cn1 | -6.08
CCC(C)NC(=O)Nc1ccc(CN2CCOC2=O)cc1 (stereo not given) | 18.8
O=C(NCCCO)Nc1cccc(Cl)c1F | -8.31
CCOc1cc(C)nc(N2CCN(Cc3nccn3C)CC2)n1 | -0.961
Cn1ccnc1-c1cccc(NC(=O)NCCN2CCOCC2)c1 | -3.53
Cc1ccc(NC(=O)Cn2cc(I)cn2)cc1 | 15.3
CN(C)C(=O)CNC(=O)Nc1cccc(Cl)c1SC(F)F | -4.52
Cn1nc2c(cc1=O)CN(CC(=O)Nc1ccc(Cl)cn1)CC2 | -3.49
Cn1cc(-c2csc(N3CCOCC3)n2)cn1 | -3.47
CS(=O)(=O)CCSc1cccc(C#N)c1 | -4.4
Cn1cc(-c2csc(N3CCN(C(=O)OC(C)(C)C)CC3)n2)cn1 | -2.04
O=C(Nc1ccnc(OC2CCOC2)c1)C1CCC1 (stereo not given) | -2.33
CC(C)c1cnc(CNc2c(F)cccc2-n2cccn2)o1 | -4.44
COCc1ccccc1NC(=O)[C@@H]1CCCN1C(=O)c1ccco1 | -8.02
Cc1n[nH]c(C2CN(CC(=O)NCCc3ccsc3)CCO2)n1 (stereo not given) | -1.23
O=C(c1ccc(Br)o1)N1CCN(Cc2ccc(OC(F)(F)F)cc2)CC1 | -2.19
CC(C)COC(C)C(=O)N1CCN(S(C)(=O)=O)CC1 (stereo not given) | -0.767
CN(C)S(=O)(=O)N1CCN(c2nccc(C(F)(F)F)n2)CC1 | -0.547
CCc1noc(C(C)N(C)CC(=O)Nc2c(C)cccc2C)n1 (stereo not given) | -4.56
COc1ccc(NC(=O)N2CCN(c3ncccn3)CC2)cn1 | -5.14
CCSc1cc(C(=O)NCCC(=O)Nc2ccccn2)ccn1 | -3.16
Cc1ccc(C(=O)NC(C)CN2CCCC2=O)c(=O)[nH]1 (stereo not given) | -5.25
Cc1nn(C)c(N(C)C)c1CNCC(O)c1ccccc1 (stereo not given) | 0.0769

Compound | cytotoxicity at 70.5 h [%]
CC(C#N)CSc1ccccc1NCC(=O)Nc1ccc(F)cc1 (stereo not given) | 2.62
COc1ccc(NC(C)C(=O)N2CCN(c3ncccn3)CC2)cn1 (stereo not given) | 2.09
NS(=O)(=O)N1CCc2ccc(NC(=O)Cc3ccc(F)cc3)cc21 | 6.47
COCC(NC(=O)c1cc[nH]n1)c1cccc(C(F)(F)F)c1 (stereo not given) | -0.606
Cc1ccc(S(=O)(=O)NC(=O)c2cccc3c2OCCO3)c(C)c1 | -3.86
Cc1ccn(-c2ccccc2NCc2ncc[nH]2)n1 | 3.45
CCSc1cc(C(=O)NCc2ccccc2O)ccn1 | -4.36
CC(c1cccnc1)N(C)Cc1csc(-c2ccccn2)n1 (stereo not given) | 8.67
CC(C)(C)C(=O)NCCC(=O)NC(C)(C)c1ccc2c(c1)OCCO2 | 1.98
CC(OCC(F)(F)F)C(=O)N1CCCCC1 (stereo not given) | 0.611
CCc1noc(C(C)N(C)CC(=O)Nc2ccc(C)cc2)n1 (stereo not given) | -4.51
CCc1nc(CN2CCCC(N(C)Cc3cnc(C)s3)C2)no1 (stereo not given) | -2
Cc1ccn(-c2ccccc2NCc2cccnc2C)n1 | -7.82
O=C(CCc1ccccn1)N1CCc2cc(Cl)cc(Cl)c2C1 | 29.3
CCc1nc(CN2CCCN(c3nc4ccccc4o3)CC2)no1 | 6.35
O=C(c1cccc(NCCO)c1)N1CCOCC1 | 6.48
Cc1cc(CNC2CCCN(c3cccnn3)C2)no1 (stereo not given) | 5.47
NC(=O)c1ccc(N2CCCCC2)c(NC(=O)c2cncc(Br)c2)c1 | -7.05
N#Cc1ccc(OCCOc2ccccc2C(=O)N2CCOCC2)cc1 | -9.24
NC(=O)C1CCN(Cn2nc(-c3ccccc3)oc2=O)CC1 | -8.01
CS(=O)(=O)NCC1CCCN(Cc2ccc(F)c3cccnc23)C1 (stereo not given) | -12.2
Cc1ccc(C(=O)NC2CCN(Cc3noc(CC(C)C)n3)CC2)s1 | 7.31
Cc1ccc(-n2nnc(CC(=O)N3CCOCC3)c2C)cc1 | -10.7
CNC1CCCN(Cc2noc(C3CC3)n2)C1 (stereo not given) | -7.48

Reference: ChEMBL document CHEMBL3507680, “University of Dundee, Gates Library screen for HepG2 cell viability”
